Values quoted from earlier work in patent publication US20080247966A1, “Compositions and Methods to Counteract Oral Malodour” (GIVAUDAN SA, priority 2005, published 2008).

Tested on: microorganisms such as yeasts
Details: oral care compositions with C1-C4 lower alcohols, WO 99/51093

CCCCCCCCO [octanol, octan-1-ol]
effect on microorganisms such as yeasts: no effect
